Our source for the T/C values is PubChem BioAssay AID330 (DTP/NCI, 2004).

This experiment deals with P388 leukemia ip, CD2F1 mice, survival T/C. As to the kind of experiment: NCI In Vivo Anticancer Drug Screen. Data for tumor model P388 Leukemia (intraperitoneal) in CD2F1 (CDF1) mice. As to conditions: endpoint: median survival time, higher = longer survival. The procedure, abridged: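 Mice carrying the transplanted tumor received test compound or vehicle. Survival was recorded in each group, and the value is the treated-group measurement divided by that of the vehicle-treated control group.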

Where [1] appears, read: dose: 50.0 mg/kg/injection, schedule: Q01DX005 (ip), vehicle: saline with Tween-80.
Setting [2] is: dose: 100.0 mg/kg/injection, schedule: Q01DX005 (ip), vehicle: saline with Tween-80.
[3] abbreviates: dose: 200.0 mg/kg/injection, schedule: Q01DX005 (ip), vehicle: saline with Tween-80.
Where [4] appears, read: dose: 6.25 mg/kg/injection, schedule: Q01DX009 (ip), vehicle: Klucel (hydroxypropylcellulose) (HPC).
Setting [5] is: dose: 12.5 mg/kg/injection, schedule: Q01DX009 (ip), vehicle: Klucel (hydroxypropylcellulose) (HPC).
Setting [6] is: dose: 60.0 mg/kg/injection, schedule: Q01DX005 (ip), vehicle: saline with Tween-80.
[7] abbreviates: dose: 120.0 mg/kg/injection, schedule: Q01DX005 (ip), vehicle: saline with Tween-80.
The mark [8] stands for this setting: dose: 240.0 mg/kg/injection, schedule: Q01DX005 (ip), vehicle: saline with Tween-80.
[9] abbreviates: dose: 100.0 mg/kg/injection, schedule: Q01DX001 (ip), vehicle: saline with Tween-80.
The mark [10] stands for this setting: dose: 200.0 mg/kg/injection, schedule: Q01DX001 (ip), vehicle: saline with Tween-80.
Where [11] appears, read: dose: 50.0 mg/kg/injection, schedule: Q01DX009 (ip), vehicle: saline.
Setting [12] is: dose: 100.0 mg/kg/injection, schedule: Q04DX002 (ip), vehicle: saline with Tween-80.
Where [13] appears, read: dose: 200.0 mg/kg/injection, schedule: Q04DX002 (ip), vehicle: saline with Tween-80.
Setting [14] is: dose: 50.0 mg/kg/injection, schedule: Q01DX005 (ip), vehicle: Klucel (hydroxypropylcellulose) (HPC).
[15] abbreviates: dose: 100.0 mg/kg/injection, schedule: Q01DX005 (ip), vehicle: Klucel (hydroxypropylcellulose) (HPC).
Where [16] appears, read: dose: 200.0 mg/kg/injection, schedule: Q01DX005 (ip), vehicle: Klucel (hydroxypropylcellulose) (HPC).

Values joined by “and” are separate entries in the source; they are usually repeats but may differ in a detail not shown here. Equal entries are not always repeated. Inconclusive results and toxic doses are left out.

With `CC(CN(C)C)CN1c2ccccc2Sc2ccccc21` (stereo not drawn), the T/C reads like this: (dose: 12.5 mg/kg/injection, schedule: Q04DX003 (ip), vehicle: saline with Tween-80) 112 % of control; (dose: 25.0 mg/kg/injection, schedule: Q04DX003 (ip), vehicle: saline with Tween-80) 115 % of control; (dose: 33.0 mg/kg/injection, schedule: Q04DX003 (ip), vehicle: saline with Tween-80) 123 % of control; (dose: 50.0 mg/kg/injection, schedule: Q04DX003 (ip), vehicle: saline with Tween-80) 117 % of control.

Turning to `Cc1ccccc1Nc1ccc([N+](=O)[O-])c2nonc12`, the T/C runs as follows: under setting [1], 103 % of control; under setting [2], 98 % of control; under setting [3], 92 % of control.

In the case of `C/C(=N\NC(=S)/N=c1\sccn1Cc1ccccc1)c1ccccn1`, the T/C (dose: 6.25 mg/kg/injection, schedule: Q01DX005 (ip), vehicle: saline with Tween-80) was 117 % of control and 123 % of control.

Take `CCCCCCCC/C=C\CCCCCCCC(=O)OC/C=C/COC(=O)c1ccccc1`: the T/C by setting is: (dose: 100.0 mg/kg/injection, schedule: Q04DX003 (ip), vehicle: Klucel (hydroxypropylcellulose) (HPC)) 106 % of control; (dose: 200.0 mg/kg/injection, schedule: Q04DX003 (ip), vehicle: Klucel (hydroxypropylcellulose) (HPC)) 99 % of control; (dose: 400.0 mg/kg/injection, schedule: Q04DX003 (ip), vehicle: Klucel (hydroxypropylcellulose) (HPC)) 106 % of control.

Turning to `C[n+]1[se]c2ccccc2c1Cl`, the T/C reads like this: (dose: 3.12 mg/kg/injection, schedule: Q01DX009 (ip), vehicle: Klucel (hydroxypropylcellulose) (HPC)) 105 % of control; under setting [4], 99 % of control; under setting [5], 99 % of control and 89 % of control.

As to `Cc1c(-c2ccc(Cl)cc2)n[nH]c1-c1[nH]nc(-c2ccc(Cl)cc2)c1C`, the T/C under setting [6] was 105 % of control, the T/C under setting [7] is 105 % of control and the T/C under setting [8] is 94 % of control.

In the case of `CCOC(=O)c1[nH]cc(C)c1-c1ccc(OCc2ccccc2)cc1`, the T/C by setting is: under setting [9], 112 % of control; under setting [10], 94 % of control; (dose: 400.0 mg/kg/injection, schedule: Q01DX001 (ip), vehicle: saline with Tween-80) 103 % of control.

Consider `CC1=CCC(=O)C=[N+]1Cc1ccccc1`, for which the T/C by setting is: (dose: 6.25 mg/kg/injection, schedule: Q01DX005 (ip), vehicle: saline) 114 % of control; (dose: 12.5 mg/kg/injection, schedule: Q01DX005 (ip), vehicle: saline) 100 % of control.

With `CCCCOc1cccc2c(NCCCCCCNc3c4ccccc4nc4c(OCCCC)cccc34)c3ccccc3nc12`, the T/C was 104 % of control (dose: 0.62 mg/kg/injection, schedule: Q## X009 (ip), vehicle: lactic acid); 104 % of control (dose: 1.25 mg/kg/injection, schedule: Q## X009 (ip), vehicle: lactic acid); 106 % of control (dose: 2.5 mg/kg/injection, schedule: Q## X009 (ip), vehicle: lactic acid); 99 % of control (dose: 5.0 mg/kg/injection, schedule: Q## X009 (ip), vehicle: lactic acid).

Consider `O=C1c2cccc(O)c2C(=O)c2c(OC3OC(CO)C(O)C(O)C3O)cccc21` (stereo not drawn), for which the T/C under setting [11] is 94 % of control; the T/C (dose: 100.0 mg/kg/injection, schedule: Q01DX009 (ip), vehicle: saline) is 93 % of control; the T/C (dose: 200.0 mg/kg/injection, schedule: Q01DX009 (ip), vehicle: saline) is 88 % of control.

Regarding `O=C(CCN1C(=O)c2ccccc2C1=O)c1cnc[nH]1`, the T/C is 105 % of control (dose: 17.5 mg/kg/injection, schedule: Q01DX005 (ip), vehicle: Klucel (hydroxypropylcellulose) (HPC)); 90 % of control (dose: 35.0 mg/kg/injection, schedule: Q01DX005 (ip), vehicle: Klucel (hydroxypropylcellulose) (HPC)); 98 % of control (dose: 70.0 mg/kg/injection, schedule: Q01DX005 (ip), vehicle: Klucel (hydroxypropylcellulose) (HPC)).

`NS(=O)(=O)c1ccc(CN2C(=O)c3ccccc3C2=O)cc1`: the T/C under setting [12] was 110 % of control.

As for `CCOC(=O)/C=C/c1c(Cl)n(C)c(=O)n(C)c1=O`, the T/C is, setting by setting: (dose: 7.5 mg/kg/injection, schedule: Q01DX005 (ip), vehicle: Klucel (hydroxypropylcellulose) (HPC)) 102 % of control; (dose: 15.0 mg/kg/injection, schedule: Q01DX005 (ip), vehicle: Klucel (hydroxypropylcellulose) (HPC)) 100 % of control; (dose: 30.0 mg/kg/injection, schedule: Q01DX005 (ip), vehicle: Klucel (hydroxypropylcellulose) (HPC)) 100 % of control.

In the case of `COc1cc2c(-c3c4c5c(cc(OC)c(OC)c5c5cc(OC)c(OC)cc35)CCN4C)c3c4c(cc(OC)c(OC)c4c2cc1OC)CCN3C`, the T/C reads like this: (dose: 100.0 mg/kg/injection, schedule: Q04DX002 (ip), vehicle: saline) 101 % of control; (dose: 200.0 mg/kg/injection, schedule: Q04DX002 (ip), vehicle: saline) 102 % of control; (dose: 400.0 mg/kg/injection, schedule: Q04DX002 (ip), vehicle: saline) 101 % of control.

Turning to `Cc1ccc(-c2nnc(N)o2)cc1`, the T/C is, setting by setting: under setting [6], 100 % of control; under setting [7], 100 % of control; under setting [8], 99 % of control.

Consider `CN(C)C(=S)S(C)(=O)=O`, for which the T/C by setting is: (dose: 12.5 mg/kg/injection, schedule: Q01DX009 (ip), vehicle: saline) 107 % of control; (dose: 25.0 mg/kg/injection, schedule: Q01DX009 (ip), vehicle: saline) 109 % of control; under setting [11], 103 % of control and 107 % of control.

Take `C#CC1OCCCO1`: the T/C is, setting by setting: (dose: 60.0 mg/kg/injection, schedule: Q01DX005 (ip), vehicle: saline) 100 % of control; (dose: 120.0 mg/kg/injection, schedule: Q01DX005 (ip), vehicle: saline) 106 % of control.

With `CCN(CC)C1=NS(=O)(=O)c2ccccc2C(NN)=C1C`, the T/C was 90 % of control under setting [4]; 90 % of control under setting [5]; 104 % of control (dose: 25.0 mg/kg/injection, schedule: Q01DX009 (ip), vehicle: Klucel (hydroxypropylcellulose) (HPC)); 92 % of control under setting [12]; 99 % of control under setting [13]; 97 % of control (dose: 400.0 mg/kg/injection, schedule: Q04DX002 (ip), vehicle: saline with Tween-80).

Regarding `NSc1ccc([N+](=O)[O-])cc1`, the T/C is 109 % of control (dose: 25.0 mg/kg/injection, schedule: Q01DX001 (ip), vehicle: other) and 100 % of control (dose: 50.0 mg/kg/injection, schedule: Q01DX001 (ip), vehicle: other).

As for `O=C(N1CCN(C(=O)S(=O)(=O)c2ccc(F)cc2)CC1)S(=O)(=O)c1ccc(F)cc1`, the T/C under setting [14] was 99 % of control, the T/C under setting [15] is 98 % of control and the T/C under setting [16] was 100 % of control.

On to `Cc1coc2c3c(ccc12)OC(C)(C)C=C3`, for which the T/C is 102 % of control under setting [9] and 104 % of control under setting [10].

Turning to `COC(=O)C(=O)C(C#N)c1ccc(C)cc1` (stereo not drawn), the T/C runs as follows: under setting [6], 104 % of control; under setting [7], 104 % of control; under setting [8], 103 % of control.

Regarding `c1nc(NCCCN2CCOCC2)c2c3c(sc2n1)CCCC3`, the T/C under setting [1] was 109 % of control, the T/C under setting [2] was 101 % of control and the T/C under setting [3] was 100 % of control.

For the compound `O=C(c1ccncc1)c1cc(Cl)c(Cl)cc1Cl`, the T/C runs as follows: (dose: 50.0 mg/kg/injection, schedule: Q04DX002 (ip), vehicle: saline with Tween-80) 102 % of control; under setting [12], 93 % of control; under setting [13], 111 % of control.

For `CS(=O)(=O)OCC1OCC(OS(C)(=O)=O)C1O` (stereo not drawn), the T/C reads like this: (dose: 50.0 mg/kg/injection, schedule: Q01DX001 (ip), vehicle: Klucel (hydroxypropylcellulose) (HPC)) 101 % of control; (dose: 100.0 mg/kg/injection, schedule: Q01DX001 (ip), vehicle: Klucel (hydroxypropylcellulose) (HPC)) 102 % of control; (dose: 200.0 mg/kg/injection, schedule: Q01DX001 (ip), vehicle: Klucel (hydroxypropylcellulose) (HPC)) 101 % of control.

As for `NC(=O)c1csc([C@@H](O)Cc2ccccc2)n1`, the T/C by setting is: under setting [6], 105 % of control; under setting [7], 106 % of control; under setting [8], 106 % of control.

As to `CC1(C)CC(N2CCOCC2)=CC(=S)N1`, the T/C under setting [14] is 100 % of control, the T/C under setting [15] is 103 % of control and the T/C under setting [16] was 98 % of control.
